Key:
[1] = system: susceptible E. coli HB101 K-12 (no β-lactamase); experiment: Broth microdilution (preliminary, Table 1), susceptible K-12; format: cell-based, Escherichia coli; conditions: for IC50: Escherichia coli, Susceptable K-12 E. coli, LB, OD600, preliminary results
Method: (§1) In order to determine the antibiotic activity of DB4-51, a debilitated strain of Escherichia coli (HB101 K-12) was transformed with the pGLO plasmid from Bio-Rad in order to express β-lactamase. This transformation was confirmed by growing on a selective medium containing 100 μg/ml ampicillin in Lennox LB with 1.5% agar. A broth microdilution assay was employed to determine the relative activity of DB4-51 against susceptible (HB 101 K-12, no β-lactamase) and resistant (HB 101 K-12 transformed to express β-lactamase) E. coli. Using Lennox LB as the medium. serial dilutions of the test compounds were performed in a 96-well plate and then inoculated with E. coli before incubating for 16-20 hours at 35° C. The bacterial growth was monitored by recording each well's absorbance at 600 nm (OD600.) The OD600 values of E. coli suspensions incubated with various compounds were compared in order to assess their activities.
(§2) FIG. 7: OD600 of susceptible and resistant K-12 E. coli cultures against DB4-51 and known antibiotics as a function of concentration. Ampicillin has a penicillin core and cephalexin has a cephalosporin core. Cultures were grown in LB broth at 37° C. while shaking at 200 rpm for 18 hours and then diluted to an OD600 of 0.005 before adding the compounds. Plates were grown at 35° C. while shaking at 200 rpm and the OD600 was recorded after 18 hours.
(§3) Table 1: Calculated IC50 values for DB4-51, cephalexin, ampicillin, and pyrithione. These values were derived by fitting the data to a log dose-response curve and reporting the concentration corresponding to half the maximum OD600 value for each compound.

[2] = system: resistant E. coli HB101 K-12 transformed to express β-lactamase; experiment: microbe, parasite or virus in culture; format: cell-based, Escherichia coli; conditions: for IC50: Escherichia coli
Method: as §1, with “Using Lennox LB as the medium. serial dilutions of the test compounds were performed in a 96-well plate and then inoculated with E. coli before incubating for 16-20 hours at 35° C.” left out
as §2, with “Plates were grown at 35° C. while shaking at 200 rpm and the OD600 was recorded after 18 hours.” left out
as §3

[3] = system: clinical isolates of Klebsiella pneumonia (Klebs); experiment: Broth microdilution in Klebs clinical isolates; format: cell-based; conditions: Klebsiella pneumoniae, LB broth
Source text: Bacterial culture reagents including LB broth (Lennox), agar-agar, ampicillin, and ceftriaxone were purchased from Sigma Aldrich Corp. The Escherichia coli (E. coli) K12 strain HB101 and pGLO E. coli transformation kit purchased from Bio-Rad Laboratories Inc. HB101 was transformed with the bla gene via the pGLO plasmid. The bla gene encodes for a TEM-1 β-lactamase that imparts penicillin resistance to the mutant E. coli K-12 strain (+Bla). Strains E. coli UTI89, [27] pCOM-GFP-transformed E. coli UTI89 (pCOM-GFP), [28] and Methicillin-Resistant Staphylococcus aureus (MRSA) clone USA300 [29] have been previously described. The Extended-Spectrum β-Lactamase (ESBL) E. coli, Klebsiella pneumonia (Klebs), and Pseudomonas aeruginosa (Pseudo) strains were clinical isolates acquired deidentified from Duke Hospital and tested for antibiotic susceptibility in the Clinical Microbiology Laboratory using standard clinical susceptibility methods.
Cultures were incubated on LB (Lennox, Sigma) agar at 37° C. in ambient atmospheric composition. Before beginning an experiment, a single bacterial colony grown on LB agar was resuspended in 2 mL LB broth and incubated overnight to form a turbid cell suspension. The overnight culture was diluted 1:100 in LB and used immediately as the working culture. To assess the antibacterial activity of compounds, the working bacterial culture was aliquoted in a clear, flat-bottomed, 96-well polystyrene plate (Costar) and the compound of interest was added in 2-fold serial dilution from 500 to 1 μM. Plates were covered with a breathable sealing film (Aeroseal, Genesee Scientific) and incubated at 37° C. in ambient atmospheric composition with shaking at 200 rpm. Optical density at 600 nm was recorded after 4 h and 20 h for each well using a standard OD600 protocol with LB serving as the blank. The resulting dose-response curves were fit to a nonlinear regression in GraphPad Prism Version 6 to calculate the IC50 of DB4-51 in each strain.

Structure (SMILES): O=C(Cc1ccccc1)N[C@@H]1C(=O)N2C(C(=O)O)=C(CSc3cccc[n+]3[O-])CS[C@H]12 [DB4-51, 2-((((6R,7R)-2-carboxy-8-oxo-7-(2-phenylacetamido)-5-thia-1-azabicyclo[4.2.0]oct-2-en-3-yl)methyl)thio)pyridine 1-oxide]
- IC50 [1]: 80 µM
- IC50 [2]: 39 µM
- decrease of IC50 over time ([2]; resistant K-12, over 22 hours): 50%
- IC50 ([3]; Klebs Isolate 1): 25 µM
- IC50 ([3]; Klebs Isolate 2): 45 µM
- IC50 ([3]; Klebs Isolate 3): 163 µM
- IC50 ([3]; Klebs Isolate 4): 133 µM
- IC50 ([3]; Klebs Isolate 5): 49 µM
- IC50 ([3]; Klebs Isolate 6): 47 µM
- IC50 ([3]; Klebs Isolate 7): 9 µM
- IC50 ([3]; Klebs Isolate 8): 30 µM
- IC50 ([3]; Klebs Isolate 9): 10 µM
- IC50 ([3]; Klebs Isolate 10): 150 µM
- IC50 ([3]; Klebs Isolate 11): 34 µM
- IC50 ([3]; Klebs Isolate 12): 52 µM
- IC50 ([3]; Klebs Isolate 13): > 500 µM

Structure (SMILES): [O-][n+]1ccccc1S [PT, 2-mercaptopyridine N-oxide]
- IC50 [1]: < 18 µM
- IC50 [2]: < 18 µM
- IC50 ([3]; Klebs Isolate 1): 10 µM
- IC50 ([3]; Klebs Isolate 2): 5 µM
- IC50 ([3]; Klebs Isolate 3): 21 µM
- IC50 ([3]; Klebs Isolate 4): 9 µM
- IC50 ([3]; Klebs Isolate 5): 11 µM
- IC50 ([3]; Klebs Isolate 6): 6 µM
- IC50 ([3]; Klebs Isolate 7): 10 µM
- IC50 ([3]; Klebs Isolate 8): 10 µM
- IC50 ([3]; Klebs Isolate 9): 9 µM
- IC50 ([3]; Klebs Isolate 10): 5 µM
- IC50 ([3]; Klebs Isolate 11): 6.5 µM
- IC50 ([3]; Klebs Isolate 12): 8 µM
- IC50 ([3]; Klebs Isolate 13): 11 µM

Structure (SMILES): CC1(C)S[C@@H]2[C@H](NC(=O)[C@H](N)c3ccccc3)C(=O)N2[C@H]1C(=O)O [Ampicillin]
- IC50 [1]: < 18 µM
- activity against susceptible strain (FIG. 7) ([1]; susceptible strain of E. coli): very active
- IC50 [2]: > 560 µM
- IC50 ([3]; Klebs Isolate 1): 142 µM
- IC50 ([3]; Klebs Isolate 2): > 500 µM
- IC50 ([3]; Klebs Isolate 3): 55 µM
- IC50 ([3]; Klebs Isolate 4): > 500 µM
- IC50 ([3]; Klebs Isolate 5): 175 µM
- IC50 ([3]; Klebs Isolate 6): 118 µM
- IC50 ([3]; Klebs Isolate 7): > 500 µM
- IC50 ([3]; Klebs Isolate 8): > 500 µM
- IC50 ([3]; Klebs Isolate 9): > 500 µM
- IC50 ([3]; Klebs Isolate 10): > 500 µM
- IC50 ([3]; Klebs Isolate 11): 251 µM
- IC50 ([3]; Klebs Isolate 12): 112 µM
- IC50 ([3]; Klebs Isolate 13): > 500 µM
